# Assays:
# Assay type in all cases: physicochemical
# [1] = Weight loss of DEET loaded microparticles at accelerated temperature; conditions: 30% w/w DEET loaded microparticles, 1:10 SiO2-NH2:hydrogenated vegetable oil, accelerated temperature 50° C., 1 h
# Protocol: Drug loading: DEET insect repellent 30% (w/w): 30% w/w of DEET was loaded into the microparticles. The selection of the 30% drug content was based on the dissolving the DEET into the molten oil and then cooled down. The DEET loading was examined for 1:1, 1:2, 1:10 and 1:20 ratio SiO2-NH2:hydrogenated vegetable oil. The DEET loaded particles were tested by weight loss in the DEET loaded 1:10 ratio was examined. Accelerated temperature of 50° C. was used. The weight sample was heated to […] and monitored the weight loss for 1 h. 2% decrease in the weight loss of the DEET loaded microparticles was observed.
# [2] = Fluazinam release from microparticles immersed in water; conditions: hydrogenated vegetable oil particles decorated with modified silica nanoparticles, about 20 microns, room temperature
# [3] = In vitro drug release from beeswax microspheres (Example 6)
# Protocol: 10 mg of microspheres were mixed with 5 mL of H2O or buffer and placed in the incubator. Three samples of each formulation were run at same conditions. A 3 mL samples were withdrawn at predetermined time intervals and an equal volume of fresh dissolution medium was replaced.
# In vitro drug release for the obtained microspheres was studied in 5 ml of 10 mM buffer phosphate solution, pH 7.4 or in ddH2O at 37° C.
# [4] = Encapsulation efficiency and loading capacity of solid lipid microspheres (UV after dissolving in chloroform)
# Protocol: The standard curves were constructed in a concentration range of 3-70 µg/mL in 10 mM PBS with R^2 value of 0.9993 and in a concentration range of 15-800 µg/mL in chloroform with R^2 value of 0.9935.
# Encapsulation efficiency is percentage of drug encapsulated in the microspheres relating to initial quantity used. 10 mg of microspheres were dissolved in 4 mL of chloroform. The absorbance of the drugs was measured using a UV-VIS spectrophotometer after appropriate dilution in order to reach calibration curve concentrations. The measured absorbance was then converted to the amount of drug by using standard calibration curve.
# The loading capacity is usually expressed as the ratio of the weight of entrapped drug and the total weight of the lipid and coating particles in percentage.
# Drug entrapment efficiency is calculated in order to determine the amount of drug that is actually retained in the microparticles related to the amount of drug that was mixed with lipid before particles formation, and usually expressed as a percentage.
# [5] = Release of drugs from Pickering particles in phosphate buffer (Example 3); conditions: for release behaviour from the Pickering particles in the release medium: FIGS. 6, buffer medium; for time within which almost all the drug was released: 1% (w/w) drug loaded Pickering dispersion, aqueous solution, room temperature
# Protocol: Release of drugs from particles: Standard curve of drug was prepared in 10 mM phosphate buffer at pH 7.2. 10 mg of drug loaded lyophilized Pickering particles were added to 2 mL of buffer and the periodic isolated solution was analyzed by UV. The release was examined at room temperature. This was done in purpose to examine the drug release properties from the Pickering particles. The analysis of initial 30 min of release is considered as the burst release of drugs from the particles (FIGS. 6).
# Release of ibuprofen from 1% (w/w) drug loaded Pickering dispersion. The release of ibuprofen was monitored by UV at the wavelength of 223 nm.
# Release of ketoprofen from 1% (w/w) drug loaded Pickering dispersion. Standard curve of ketoprofen was prepared in 10 mM phosphate buffer at pH 7.2 at wavelength of 260 nm.
# The particles were checked for the drug release with time. FIGS. 6 provides the release of the drug loaded Pickering particles in a buffer medium.
smiles,measurement,setting,value
CCN(CC)C(=O)c1cccc(C)c1 [DEET],decrease in weight (weight loss),[1],2%
O=[N+]([O-])c1cc(C(F)(F)F)c(Cl)c([N+](=O)[O-])c1Nc1ncc(C(F)(F)F)cc1Cl [Fluazinam],release behaviour in water,[2],constantly releasing
CCN(CC)CC(=O)Nc1c(C)cccc1C [Lidocaine],"drug released in initial burst, first 24 h","[3]; Lidocaine from Beeswax-Chitosan microspheres, 10 mM phosphate buffer pH 7.4, 37° C.",about 70%
same,entrapment efficacy,[4]; Lidocaine in Beeswax-Chitosan particles (pH 6.5),49%
CN(C)CCC[C@@]1(c2ccc(F)cc2)OCc2cc(C#N)ccc21 [escitalopram],release behaviour from the Pickering particles in the release medium,[5],sustained release
CC(C)Cc1ccc(C(C)C(=O)O)cc1 (stereo not drawn) [ibuprofen],time within which almost all the drug was released,[5],≤ 30 min
same,release behaviour from the Pickering particles in the release medium,[5],sustained release
same,time during which most of the drug was released,"[3]; Ibuprofen from Beeswax-Starch MSs, PBS pH 7.4, 37° C.",4 days
same,further continuation of release in water compared with buffer,"[3]; Ibuprofen from Beeswax-Starch MSs, ddH2O, 37° C.",7 days
same,loading capacity,"[4]; Ibuprofen in Beeswax-Starch MSs, average of three experiments",15.7%
same,entrapment efficiency,[4]; Ibuprofen-loaded microspheres from beeswax and starch,71%
CC(C(=O)O)c1cccc(C(=O)c2ccccc2)c1 (stereo not drawn) [ketoprofen],time within which almost all the drug was released,[5],≤ 30 min

# From patent US20230263754A1, “SOLID DISPERSIONS AND PARTICLES AND METHODS FOR CONTROLLED-RELEASE OF LIPID-SOLUBLE OR DISPESIBLE ACTIVES” (YISSUM RESEARCH DEVELOPMENT COMPANY OF THE HEBREW …, priority 2020, published 2023)
